Counter-ions that a name gives are not always drawn. Like-named read-outs stand apart in the source and are kept apart here.

From patent US7629347B2, “Protein tyrosine kinase inhibitors” (Critical Outcome Technologies, Inc., priority 2002, dated 2009) come the findings set out here.

Series [1] relates to mice. The note with it: mouse, in vivo, 50 mg/kg.
Method: (§2) Five groups of mice (3 mice per group) were administered a 50 mg/kg dosage of Formula II.
The next series relates to Leukemia Cell Line P388. Kind of series: in vitro test on cell line P388. The note with it: Mus musculus. In kind it is cell-based, murine. How it is done: (§1) The COTI-001 compound was tested in vitro on a variety of cell lines comparing its effect to a known protein tyrosine kinase inhibitor used in the treatment of certain cancers.
For the next series, the system named is Leukemia Cell Line K562. Briefly: in vitro test on cell line K562. In kind it is cell-based. As to conditions: Homo sapiens. How it is done:
as §1

Series [2] relates to mice. Kind of series: in vivo toxicity study in mice.
Method: as §2
Series [3] has as its system Breast Cancer Cell Line MCF7. Briefly: in vitro test on cell line MCF7. The series is classed as cell-based. As to conditions: Homo sapiens, MCF7, read-out: Actual −Log(GI50) (converted). The procedure:
as §1

Regarding `Cc1ccc(NC(=O)c2ccc(CN3CCN(C)CC3)cc2)cc1Nc1nccc(-c2cccnc2)n1` [Gleevec ™, reference compound], the tolerability of dosage entry in the series on mice [1] is reported as “able to tolerate this dosage amount”. For the same molecule, the GI50 was 2 µM with Leukemia Cell Line P388 (Leukemia Cell Line P388, in vitro result, read-out: Actual −Log(GI50) (converted)) and 1 µM with Leukemia Cell Line K562 (Leukemia Cell Line K562, in vitro result, read-out: Actual −Log(GI50) (converted)).

Regarding `CC1CN=C(c2ccc(NC(=O)c3ccc(C(=O)Nc4ccc(C5=NCC(C)CN5)cc4)nc3)cc2)NC1` (centres unmarked) [Formula II, N,N′-Bis[4-(1,4,5,6-tetrahydro-5-methyl-2-pyrimidinyl)phenyl]-2,5-pyridinedicarboxamide dihydrochloride], the GI50 in the series with Leukemia Cell Line P388 (P388, read-out: Actual −Log(GI50) (converted)) was 1 µM; with Leukemia Cell Line K562 (K562, read-out: Actual −Log(GI50) (converted)), 20 µM; in series [3], 20 µM. This molecule also came in with a tolerated dosage with mice [2] of at most 25 mg/kg. Moreover, the tolerability of dosage result with mice [2] (50 mg/kg dosage) is “not tolerated”.

Usually GI50 stands for the concentration giving 50% growth inhibition.
